{"source": "PubChem BioAssay AID1963841", "about": "(Molecular Pharmacology Branch, DTP, NCI, 2024)", "tested_on": "439559-082-T-J2-PDC spheroid viability", "assay": "Anticancer human tumor 439559-082-T-J2-PDC patient-derived colon adenocarcinoma cell line growth inhibition [POLQ]", "conditions": "spheroids with HUVEC and MSC; for IC50: curve of first compound; for viability, T/C: stronger effect = lower value", "outline": "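Complex spheroid viability model combining PDC tumour cells with endothelial (HUVEC) and MSC stromal cells. Novobiocin, ART-558 or RP6685 were tested singly and in combination with standard and investigational anticancer drugs. Each was titrated in half-log steps from near clinical Cmax, or from 10 microM where Cmax was unknown.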", "key": {"[1]": {"conditions": "second compound 0.0316 µM, first compound 0.0316 µM"}, "[2]": {"conditions": "second compound 0.0316 µM, first compound 0.1 µM"}, "[3]": {"conditions": "second compound 0.0316 µM, first compound 0.316 µM"}, "[4]": {"conditions": "second compound 0.0316 µM, first compound 1 µM"}, "[5]": {"conditions": "second compound 0.0316 µM, first compound 3.16 µM"}, "[6]": {"conditions": "second compound 0.0316 µM, first compound 10 µM"}, "[7]": {"conditions": "second compound 0.1 µM, first compound 0.0316 µM"}, "[8]": {"conditions": "second compound 0.1 µM, first compound 0.1 µM"}, "[9]": {"conditions": "second compound 0.1 µM, first compound 0.316 µM"}, "[10]": {"conditions": "second compound 0.1 µM, first compound 1 µM"}, "[11]": {"conditions": "second compound 0.1 µM, first compound 3.16 µM"}, "[12]": {"conditions": "second compound 0.1 µM, first compound 10 µM"}, "[13]": {"conditions": "second compound 0.316 µM, first compound 0.0316 µM"}, "[14]": {"conditions": "second compound 0.316 µM, first compound 0.1 µM"}, "[15]": {"conditions": "second compound 0.316 µM, first compound 0.316 µM"}, "[16]": {"conditions": "second compound 0.316 µM, first compound 1 µM"}, "[17]": {"conditions": "second compound 0.316 µM, first compound 3.16 µM"}, "[18]": {"conditions": "second compound 0.316 µM, first compound 10 µM"}, "[19]": {"conditions": "second compound 1 µM, first compound 0.0316 µM"}, "[20]": {"conditions": "second compound 1 µM, first compound 0.1 µM"}, "[21]": {"conditions": "second compound 1 µM, first compound 0.316 µM"}, "[22]": {"conditions": "second compound 1 µM, first compound 1 µM"}, "[23]": {"conditions": "second compound 1 µM, first compound 3.16 µM"}, "[24]": {"conditions": "second compound 1 µM, first compound 10 µM"}, "[25]": {"conditions": "second compound 3.16 µM, first compound 0.0316 µM"}, "[26]": {"conditions": "second compound 3.16 µM, first compound 0.1 µM"}, "[27]": {"conditions": "second compound 3.16 µM, first compound 0.316 µM"}, "[28]": {"conditions": "second compound 3.16 µM, first compound 1 µM"}, "[29]": {"conditions": "second compound 3.16 µM, first compound 3.16 µM"}, "[30]": {"conditions": "second compound 3.16 µM, first compound 10 µM"}, "[31]": {"conditions": "second compound 10 µM, first compound 0.0316 µM"}, "[32]": {"conditions": "second compound 10 µM, first compound 0.1 µM"}, "[33]": {"conditions": "second compound 10 µM, first compound 0.316 µM"}, "[34]": {"conditions": "second compound 10 µM, first compound 1 µM"}, "[35]": {"conditions": "second compound 10 µM, first compound 3.16 µM"}, "[36]": {"conditions": "second compound 10 µM, first compound 10 µM"}}}
{"compound": "CC1COCCN1c1cc(-c2ccnn2C)c2ccnc(-c3ccn[nH]3)c2n1", "note": "(centres undefined) + Cc1cccc(N(C)C(=O)C2C(O)CCN2c2nc(C)cc(C(F)(F)F)c2C#N)c1;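 also: spheroids exposed to compounds for seven days before readout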;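 as to viability, T/C: 100% = DMSO vehicle control viability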", "values": [{"measurement": "IC50", "setting": "second compound 0.0316 µM", "value": 557, "unit": "nM"}, {"measurement": "IC50", "setting": "second compound 0.1 µM", "value": 397, "unit": "nM"}, {"measurement": "IC50", "setting": "second compound 0.316 µM", "value": 311, "unit": "nM"}, {"measurement": "IC50", "setting": "second compound 1 µM", "value": 478, "unit": "nM"}, {"measurement": "IC50", "setting": "second compound 3.16 µM", "value": 291, "unit": "nM"}, {"measurement": "IC50", "setting": "second compound 10 µM", "value": 841, "unit": "nM"}, {"measurement": "viability, T/C", "setting": "[1]", "value": 91, "unit": "%"}, {"measurement": "viability, T/C", "setting": "[2]", "value": 79.8, "unit": "%"}, {"measurement": "viability, T/C", "setting": "[3]", "value": 50.9, "unit": "%"}, {"measurement": "viability, T/C", "setting": "[4]", "value": 49.7, "unit": "%"}, {"measurement": "viability, T/C", "setting": "[5]", "value": 53.6, "unit": "%"}, {"measurement": "viability, T/C", "setting": "[6]", "value": 43.6, "unit": "%"}, {"measurement": "viability, T/C", "setting": "[7]", "value": 95.5, "unit": "%"}, {"measurement": "viability, T/C", "setting": "[8]", "value": 81.1, "unit": "%"}, {"measurement": "viability, T/C", "setting": "[9]", "value": 51.2, "unit": "%"}, {"measurement": "viability, T/C", "setting": "[10]", "value": 44.3, "unit": "%"}, {"measurement": "viability, T/C", "setting": "[11]", "value": 49.4, "unit": "%"}, {"measurement": "viability, T/C", "setting": "[12]", "value": 43.3, "unit": "%"}, {"measurement": "viability, T/C", "setting": "[13]", "value": 87.7, "unit": "%"}, {"measurement": "viability, T/C", "setting": "[14]", "value": 80.3, "unit": "%"}, {"measurement": "viability, T/C", "setting": "[15]", "value": 49.5, "unit": "%"}, {"measurement": "viability, T/C", "setting": "[16]", "value": 47.8, "unit": "%"}, {"measurement": "viability, T/C", "setting": "[17]", "value": 51.6, "unit": "%"}, {"measurement": "viability, T/C", "setting": "[18]", "value": 40.8, "unit": "%"}, {"measurement": "viability, T/C", "setting": "[19]", "value": 92.9, "unit": "%"}, {"measurement": "viability, T/C", "setting": "[20]", "value": 76.9, "unit": "%"}, {"measurement": "viability, T/C", "setting": "[21]", "value": 52, "unit": "%"}, {"measurement": "viability, T/C", "setting": "[22]", "value": 46.2, "unit": "%"}, {"measurement": "viability, T/C", "setting": "[23]", "value": 51.4, "unit": "%"}, {"measurement": "viability, T/C", "setting": "[24]", "value": 37.4, "unit": "%"}, {"measurement": "viability, T/C", "setting": "[25]", "value": 89, "unit": "%"}, {"measurement": "viability, T/C", "setting": "[26]", "value": 76.8, "unit": "%"}, {"measurement": "viability, T/C", "setting": "[27]", "value": 47.2, "unit": "%"}, {"measurement": "viability, T/C", "setting": "[28]", "value": 46.7, "unit": "%"}, {"measurement": "viability, T/C", "setting": "[29]", "value": 55.8, "unit": "%"}, {"measurement": "viability, T/C", "setting": "[30]", "value": 42, "unit": "%"}, {"measurement": "viability, T/C", "setting": "[31]", "value": 82.3, "unit": "%"}, {"measurement": "viability, T/C", "setting": "[32]", "value": 72.3, "unit": "%"}, {"measurement": "viability, T/C", "setting": "[33]", "value": 50.6, "unit": "%"}, {"measurement": "viability, T/C", "setting": "[34]", "value": 49.7, "unit": "%"}, {"measurement": "viability, T/C", "setting": "[35]", "value": 49.8, "unit": "%"}, {"measurement": "viability, T/C", "setting": "[36]", "value": 36.8, "unit": "%"}]}
{"compound": "CC1COCCN1c1cc(C2(S(C)(=N)=O)CC2)nc(-c2ccnc3[nH]ccc23)n1", "note": "(centres undefined) + Cc1cccc(N(C)C(=O)C2C(O)CCN2c2nc(C)cc(C(F)(F)F)c2C#N)c1", "values": [{"measurement": "IC50", "setting": "second compound 0.0316 µM", "value": "> 10000", "unit": "nM"}, {"measurement": "IC50", "setting": "second compound 0.1 µM", "value": "> 10000", "unit": "nM"}, {"measurement": "IC50", "setting": "second compound 0.316 µM", "value": "> 10000", "unit": "nM"}, {"measurement": "IC50", "setting": "second compound 1 µM", "value": "> 10000", "unit": "nM"}, {"measurement": "IC50", "setting": "second compound 3.16 µM", "value": "> 10000", "unit": "nM"}, {"measurement": "IC50", "setting": "second compound 10 µM", "value": "> 10000", "unit": "nM"}, {"measurement": "viability, T/C", "setting": "[1]", "value": 105, "unit": "%"}, {"measurement": "viability, T/C", "setting": "[2]", "value": 102, "unit": "%"}, {"measurement": "viability, T/C", "setting": "[3]", "value": 104, "unit": "%"}, {"measurement": "viability, T/C", "setting": "[4]", "value": 92.4, "unit": "%"}, {"measurement": "viability, T/C", "setting": "[5]", "value": 83.4, "unit": "%"}, {"measurement": "viability, T/C", "setting": "[6]", "value": 70.5, "unit": "%"}, {"measurement": "viability, T/C", "setting": "[7]", "value": 98.6, "unit": "%"}, {"measurement": "viability, T/C", "setting": "[8]", "value": 101, "unit": "%"}, {"measurement": "viability, T/C", "setting": "[9]", "value": 97.9, "unit": "%"}, {"measurement": "viability, T/C", "setting": "[10]", "value": 101, "unit": "%"}, {"measurement": "viability, T/C", "setting": "[11]", "value": 84.7, "unit": "%"}, {"measurement": "viability, T/C", "setting": "[12]", "value": 70.4, "unit": "%"}, {"measurement": "viability, T/C", "setting": "[13]", "value": 97.3, "unit": "%"}, {"measurement": "viability, T/C", "setting": "[14]", "value": 97.8, "unit": "%"}, {"measurement": "viability, T/C", "setting": "[15]", "value": 103, "unit": "%"}, {"measurement": "viability, T/C", "setting": "[16]", "value": 94.5, "unit": "%"}, {"measurement": "viability, T/C", "setting": "[17]", "value": 94.2, "unit": "%"}, {"measurement": "viability, T/C", "setting": "[18]", "value": 75, "unit": "%"}, {"measurement": "viability, T/C", "setting": "[19]", "value": 102, "unit": "%"}, {"measurement": "viability, T/C", "setting": "[20]", "value": 98.2, "unit": "%"}, {"measurement": "viability, T/C", "setting": "[21]", "value": 101, "unit": "%"}, {"measurement": "viability, T/C", "setting": "[22]", "value": 92.1, "unit": "%"}, {"measurement": "viability, T/C", "setting": "[23]", "value": 89.1, "unit": "%"}, {"measurement": "viability, T/C", "setting": "[24]", "value": 69.2, "unit": "%"}, {"measurement": "viability, T/C", "setting": "[25]", "value": 101, "unit": "%"}, {"measurement": "viability, T/C", "setting": "[26]", "value": 103, "unit": "%"}, {"measurement": "viability, T/C", "setting": "[27]", "value": 99.9, "unit": "%"}, {"measurement": "viability, T/C", "setting": "[28]", "value": 96.6, "unit": "%"}, {"measurement": "viability, T/C", "setting": "[29]", "value": 92.2, "unit": "%"}, {"measurement": "viability, T/C", "setting": "[30]", "value": 68.3, "unit": "%"}, {"measurement": "viability, T/C", "setting": "[31]", "value": 95, "unit": "%"}, {"measurement": "viability, T/C", "setting": "[32]", "value": 89.6, "unit": "%"}, {"measurement": "viability, T/C", "setting": "[33]", "value": 96, "unit": "%"}, {"measurement": "viability, T/C", "setting": "[34]", "value": 96.6, "unit": "%"}, {"measurement": "viability, T/C", "setting": "[35]", "value": 80.5, "unit": "%"}, {"measurement": "viability, T/C", "setting": "[36]", "value": 59.1, "unit": "%"}]}
